We go through 14 compounds from patent US20250129021A1, “SMALL MOLECULE PROTEIN SYNTHESIS MODULATORS” (Interdict Bio, Inc., priority 2023, published 2025).

For orientation: IC50 means the point on the concentration scale where inhibition reaches its midpoint.

Assay type in all cases: biochemical
Settings in all cases: HeLa S3 lysate, sfGFP/mCherry ratio, 2 hrs at 30° C.

One test relates to KRAS G12D. Briefly: In vitro transcription-translation (IVTT) assay, KRAS G12D reporter. The method, boiled down: (§1)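 Reporter: mCherry, P2A, then 3×FLAG-target peptide-sfGFP fusion, IRES-initiated; HeLa S3 lysate IVTT; cpd dilutions 30 μM−0.1 μM half-log in 100% DMSO (dilution-plate conc); DNA added last; 2 h, 30° C; PBS quench.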
A further test deals with CCND1. Briefly: In vitro transcription-translation (IVTT) assay, CCND1 reporter. The method, boiled down:
as §1

The test system of another test is MYC. The test can be described thus: In vitro transcription-translation (IVTT) assay, MYC reporter. The method, boiled down:
as §1

For another test, the system named is ALK. The test can be described thus: In vitro transcription-translation (IVTT) assay, ALK reporter. The method, boiled down:
as §1

For a further test, the system named is MCL-1. Briefly: In vitro transcription-translation (IVTT) assay, MCL-1 reporter. The method, boiled down: as §1
For another test, the system named is BCL-2. The test can be described thus: In vitro transcription-translation (IVTT) assay, BCL-2 reporter. An excerpt: All reporter constructs have been cloned into the pT7CFE1-CHis plasmid (ThermoFisher #88860) using Gibson assembly procedures (NEB #E2611L). The parental pT7CFE1-CHis plasmid contains an EMCV IRES at the 5′UTR for translation initiation, a multiple-cloning site (MCS) for gene insertion, an optional C-terminal His-epitope tag, and polyA sequence in the 3′UTR to regulate mRNA stability. All reporters are designed to be inserted at the MCS to include a red fluorescent protein (mCherry), P2A self-cleaving peptide which releases the preceding mCherry protein product, and a fusion open reading frame containing a 3×FLAG epitope, a peptide sequence of interest (TEST), and green fluorescent protein (sfGFP).
Construct Plasmid Preparation: All plasmids are isolated from MACH1 cells (ThermoFisher) grown overnight in ampicillin-containing luria broth, and purified using ZymoPure Express Plasmid Midiprep Kit (Zymo Research). Constructs are sequenced verified and diluted to a working concentration of 110 ng/μL.
HeLa S3 Lysate Preparation: HeLa S3 cell pellets are acquired from Ipracell/Ipratech (Belgium) and shipped as 4 mL frozen cell pellets on dry ice for storage at −80° C. until use. The procedure for lysate preparation is as follows. Prepare 1× Lysis Buffer, cold and stored on ice:
Each preparation takes 8 cell pellets (4 ml packed volume each, approximately 1.0×10^9 cells per pellet). Thaw cell pellets from −80° C. on ice for 90 mins. Lay pellets horizontally on top of the ice and rotate every 30 mins to ensure even thawing. Once thawed, add 4 mL of cold lysis buffer to each pellet, and using a serological pipet, gently pipet up and down to break up clumps. Incubate resuspended cells in ice for an additional 30 mins (plunged into ice). During 30 min incubation, rinse and RNase-zap (Ambion) glass dounces (use loose pestle “A”), gently dry and place on ice until needed. Prepare RNase-free Eppendorf tubes for spinning and for batch storage. Add batch labels to 1.5-1.7 mL RNase-free microcentrifuge tubes (labeling scheme below). Each batch will have an extra 1.5-1.7 mL RNase-free microcentrifuge tube for 40 μL of lysate, label the top of this tube (labeling scheme below). After 30 min incubation, transfer all 8 mL of cell pellet to dounce. Cell lysis is complete after douncing 100 times. Aliquot cell lysis into 1.5-1.7 mL temporary-microcentrifuge tubes. Place tubes in centrifuge with “fins” out, and spin at 1,200×g for 5 mins. After the first spin use a 1 mL pipet to resuspend each tube and repeat spin. This acts as an additional lysis step, is more vigorous and increases lysate yield. During second spin get liquid N2 and a fresh conical tube on ice. After spin is complete, transfer supernatant (lysate) from microcentrifuge tubes into the 50 mL conical tube and keep on ice. Repeat steps 10-14 for all other cell pellets until completed. Once all cell lysate has been transferred to the 50 mL conical tube pipet to mix so the solution is homogenous. Transfer 1 mL of lysate into batch-labeled microcentrifuge tubes and flash freeze in liquid nitrogen. Be sure to pipet up and down to mix throughout transfer step. Place all tubes in the […] for long-term storage.
In vitro transcription-translation assay setup: Each assay includes a master mix containing lysate and shared components, a 96-well plate containing compound titrations for testing, a 96-well DNA plate with reporter constructs to be tested, 96-well skirted PCR plates, and 96-well flat-bottom, black, fluorescent assay plates. […]

`COc1ccc(C[C@H]2NC[C@H](O)[C@H]2OC(=O)NCCc2cnc[nH]2)cc1` [V187593, (2R,3S,4S)-4-hydroxy-2-[(4-methoxyphenyl)methyl]pyrrolidin-3-yl N-[2-(3H-imidazol-4-yl)ethyl]carbamate]: the IC50 with KRAS G12D, in the test with CCND1, in the test on MYC, in the test on ALK, with MCL-1 and with BCL-2 was below 10 µM each time.

`COc1ccc(C[C@H]2NC[C@H](O)[C@H]2OC(=O)NCc2ccn[nH]2)cc1` [V187321, (2R,3S,4S)-4-hydroxy-2-[(4-methoxyphenyl)methyl]pyrrolidin-3-yl N-(2H-pyrazol-3-ylmethyl)carbamate; trifluoroacetic acid]: the IC50 with KRAS G12D, in the test on CCND1, in the test on MYC, in the test on ALK, in the test on MCL-1 and in the test with BCL-2 was below 10 µM in each case.

As for `COc1ccc(C[C@H]2NC[C@H](O)[C@H]2OC(=O)NCc2nc(Cl)c(Cl)[nH]2)cc1` [V187824, (2R,3S,4S)-4-hydroxy-2-[(4-methoxyphenyl)methyl]pyrrolidin-3-yl N-[(4,5-dichloro-1H-imidazol-2-yl)methyl]carbamate], the IC50 in the test on CCND1, in the test with MYC, in the test on MCL-1 and in the test on BCL-2 was above 30 µM each time.

For the compound `COc1ccc(C[C@H]2NC[C@H](O)[C@H]2OC(=O)NCCc2cc(C)on2)cc1` [V187719, (2R,3S,4S)-4-hydroxy-2-[(4-methoxyphenyl)methyl]pyrrolidin-3-yl N-[2-(5-methyl-1,2-oxazol-3-yl)ethyl]carbamate], the IC50 with CCND1 is below 10 µM; with MYC, below 10 µM; in the test with MCL-1, below 10 µM; in the test on BCL-2 it was 10 to 20 µM.

As for `COc1ccc(C[C@H]2NC[C@H](O)[C@H]2OC(=O)NCCc2ccn(C)n2)cc1` [V187847, (2R,3S,4S)-4-hydroxy-2-[(4-methoxyphenyl)methyl]pyrrolidin-3-yl N-[2-(1-methylpyrazol-3-yl)ethyl]carbamate], the IC50 with CCND1 is 10 to 20 µM; in the test on MYC, below 10 µM; in the test on MCL-1 it was below 10 µM; in the test with BCL-2, 20 to 30 µM.

Consider `COc1ccc(C[C@H]2NC[C@H](O)[C@H]2OC(=O)NCC(=O)NCC(N)=O)cc1` [V188021, (2R,3S,4S)-4-hydroxy-2-[(4-methoxyphenyl)methyl]pyrrolidin-3-yl N-[(carbamoylmethylcarbamoyl)methyl]carbamate], for which the IC50 was in the range of 20 to 30 µM with CCND1, 20 to 30 µM in the test with MYC, 10 to 20 µM with MCL-1 and 20 to 30 µM in the test on BCL-2.

As to `COc1ccc(C[C@H]2NC[C@H](O)[C@H]2OC(=O)NCc2ccc(-c3ccccc3)cc2)cc1` [V187977, (2R,3S,4S)-4-hydroxy-2-[(4-methoxyphenyl)methyl]pyrrolidin-3-yl N-{[1,1′-biphenyl]-4-ylmethyl}carbamate], the IC50 with CCND1, in the test with MYC, in the test with MCL-1 and with BCL-2 was above 30 µM throughout.

`COc1ccc(C[C@H]2NC[C@H](O)[C@H]2OC(=O)NCc2ccnc(OC)c2)cc1` [V188051, (2R,3S,4S)-4-hydroxy-2-[(4-methoxyphenyl)methyl]pyrrolidin-3-yl N-[(2-methoxypyridin-4-yl)methyl]carbamate]: the 50% inhibitory concentration (IC50) in the test with CCND1, with MYC, in the test with MCL-1 and with BCL-2 was below 10 µM each time.

Take `COc1ccc(C[C@H]2NC[C@H](O)[C@H]2OC(=O)NCCc2ccncc2)cc1` [V187807, (2R,3S,4S)-4-hydroxy-2-[(4-methoxyphenyl)methyl]pyrrolidin-3-yl N-[2-(pyridin-4-yl)ethyl]carbamate]: the IC50 with KRAS G12D, in the test with MYC, in the test with ALK, in the test on MCL-1 and with BCL-2 was below 10 µM each time.

`COc1ccc(C[C@H]2NC[C@H](O)[C@H]2OC(=O)NCCc2cc[nH]n2)cc1` [V187698, (2R,3S,4S)-4-hydroxy-2-[(4-methoxyphenyl)methyl]pyrrolidin-3-yl N-[2-(1H-pyrazol-3-yl)ethyl]carbamate; trifluoroacetic acid]: the IC50 with KRAS G12D, in the test on CCND1, in the test with MYC, with ALK, with MCL-1 and in the test with BCL-2 was below 10 µM in each case.

For `COc1ccc(C[C@H]2NC[C@H](O)[C@H]2OC(=O)NCC2(F)CNC2)cc1` [V187877, (2R,3S,4S)-4-hydroxy-2-[(4-methoxyphenyl)methyl]pyrrolidin-3-yl N-[(3-fluoroazetidine-3-yl)methyl]carbamate], the IC50 in the test on CCND1, with MYC, in the test on MCL-1 and in the test on BCL-2 was above 30 µM each time.

Take `COc1ccc(C[C@H]2NC[C@H](O)[C@H]2OC(=O)NCc2c[nH]cn2)cc1` [V187192, (2R,3S,4S)-4-hydroxy-2-[(4-methoxyphenyl)methyl]pyrrolidin-3-yl N-(1H-imidazol-4-ylmethyl)carbamate]: the IC50 in the test with KRAS G12D, with CCND1, in the test on MYC, in the test with ALK, in the test with MCL-1 and in the test on BCL-2 was below 10 µM in each case.

`COc1ccc(C[C@H]2NC[C@H](O)[C@H]2OC(=O)NCC(=O)N[C@@H](C)C(N)=O)cc1` [Cmpd V188022]: the IC50 in the test with CCND1 is above 30 µM; in the test with MYC, 10 to 20 µM; in the test with MCL-1, below 10 µM; in the test on BCL-2, 20 to 30 µM.

Regarding `COc1ccc(C[C@H]2NC[C@H](O)[C@H]2OC(=O)NCc2ccc(I)cc2)cc1` [V187928, (2R,3S,4S)-4-hydroxy-2-[(4-methoxyphenyl)methyl]pyrrolidin-3-yl N-[(4-iodophenyl)methyl]carbamate], the IC50 was above 30 µM in the test on CCND1, 10 to 20 µM in the test with MYC, 10 to 20 µM with MCL-1 and above 30 µM in the test with BCL-2.
